Measured values from patent US20230126447A1, “OCULAR DRUG DEPOT FOR COMPLEMENT-MEDIATED DISORDERS” (priority 2020, published 2023).
Entries after “also recorded” stand apart in the source; their conditions may differ. Where two headings read alike, the source gives them in different places.

Test: Ocular tissue and plasma pharmacokinetics, 15 mg/kg single and BID oral, Dutch Belted rabbits (Example 3/5)
Format: in vivo
Conditions: for MRTlast / Tlast / MRT inf / half-life: Choroid-RPE; for concentration at 1 h / concentration at 6 h / concentration at 168 h / concentration at 24 h / concentration at 96 h / concentration at 240 h / concentration at 0 h / MRT inf / half-life: Dutch Belted, rabbit
Protocol: Study design including group designation and dose levels are outlined in Table 4. […] Fifteen Dutch Belted and 5 New Zealand White rabbits were used as un-dosed controls. […] The dose volume was 5 mL/kg/dose for all groups. Safety was assessed with toxicological and ophthalmic examinations including slit lamp biomicroscopy, indirect ophthalmoscopy, rebound tonometry, and ultrasonic corneal pachymetry.
Analyst® software (Version 1.6.2) was used to capture the LC-MS/MS data and integrate the peak areas. Calibration standards and QCs were prepared in a blank solution of 75%:25% acetonitrile:water (v:v), ranging from 10 ng/mL to 10,000 ng/mL. Matrix matched standard and QC samples were prepared by mixing 2 μL of standard or QC sample above with 18 μL of appropriate ocular tissue or plasma. The final calibration standards ranged from 1 ng/mL to 1000 ng/mL. All plasma, retina, choroid-RPE, optic nerve, and vitreous humor samples were analyzed in a single run. Iris-ciliary body samples were analyzed in two runs due to a need for sample dilution. […] Dilution QCs were prepared at 5000 ng/mL where appropriate. Two sets of standards were used to bracket the analytical run at the beginning and end of the run. Three sets of QCs were included the analytical runs. All concentrations in ocular matrices are reported as ng/g based on the assumed density of 1 g/mL.
1, 6, 24, 96, 168, and 240 hours post-dose on Day 15, with the eyes collected at the same time as blood sampling. A single blood sample was taken from Groups 4 and 5 at sacrifice. Plasma, vitreous humor (VH), retina, choroid-retina pigmented epithelium (Choroid-RPE), optic nerve (ON), and iris-ciliary body (I-CB) were analyzed by LC-MS/MS to quantify test article concentrations. The lower limit of quantitation (LLOQ) in plasma and vitreous humor was 1.0 ng/mL. The LLOQ was 6.0 ng/g in retina, Choroid-RPE, and I-CB and the optic nerve LLOQ was 15 ng/g, assuming tissue density of 1 g/mL where relevant.
Study design including group designation and dose levels are outlined in Table 18.

[1] = DB rabbit, 15 mg/kg BID, Day 15
[2] = DB rabbit, 15 mg/kg single dose, Day 1
[3] = DB rabbit, 15 mg/kg BID oral, Day 15, 24 h
[4] = DB rabbit, 15 mg/kg BID oral, Day 15, 96 h
[5] = DB rabbit, 15 mg/kg BID oral, Day 15, 168 h
[6] = DB rabbit, 15 mg/kg BID oral, Day 15, 240 h
[7] = DB rabbit, 15 mg/kg single oral dose, Day 1, 0 h
[8] = DB rabbit, 15 mg/kg single oral dose, Day 1, 0 h, 15 mg/kg
[9] = DB rabbit, 15 mg/kg single oral dose, Day 1, 24 h
[10] = DB rabbit, 15 mg/kg single oral dose, Day 1, 96 h
[11] = DB rabbit, 15 mg/kg single oral dose, Day 1, 96 h, 15 mg/kg
[12] = DB rabbit, 15 mg/kg single oral dose, Day 1, 168 h
[13] = DB rabbit, 15 mg/kg single oral dose, Day 1, 240 h
[14] = DB rabbits, Day 1, 15 mg/kg single dose, 0 hr
[15] = choroid-RPE, po, 15 mg/kg, DB rabbit, 15 mg/kg BID, Day 15
[16] = choroid-RPE, po, 15 mg/kg, DB rabbit, 15 mg/kg single dose, Day 1

`CC(=O)c1nn(CC(=O)N2C[C@H](F)C[C@H]2C(=O)Nc2cccc(Br)n2)c2ccc(-c3cnc(C)nc3)cc12` [Compound 1, (2S,4R)-1-(2-(3-Acetyl-5-(2-methylpyrimidin-5-yl)-1H-indazol-1-yl)acetyl)-N-(6-bromopyridin-2-yl)-4-fluoropyrrolidine-2-carboxamide] gave an MRTlast [1] of 68.5 h, a Tlast [1] of 240 h and an MRTlast [2] of 49.7 h. For the same compound, the Tlast [2] was 240 h, the “Vitreous humor concentration after 24 hours post-dose (non-detectable)” value (DB rabbit, 15 mg/kg BID for 14 days) was less than 1.0 ng/mL and the “Mean Aqueous Humor concentration” value (DB rabbit, 15 mg/kg BID oral, Day 15, 0 h) was “BLQ^a”. For the same compound, the “Mean Aqueous Humor concentration” value (DB rabbit, 15 mg/kg BID oral, Day 15, 6 h) was “BLQ^a”, the “Mean Aqueous Humor concentration” value [3] was “BLQ^a” and the “Mean Vitreous Humor concentration” value [3] was “BLQ^a”. For the same compound, the Mean plasma concentration (DB rabbit, 15 mg/kg BID oral, Day 15, 24 h, 15 mg/kg) was 5.6 ng/mL, the “Mean Aqueous Humor concentration” value [4] was “BLQ^a” and the “Mean Vitreous Humor concentration” value [4] was “BLQ^a”. The “Mean Aqueous Humor concentration” value [5] was “BLQ^a”, the “Mean Vitreous Humor concentration” value [5] was “BLQ^a” and the Mean plasma concentration [5] was “BLQ^a”. For the same compound, the “Mean Aqueous Humor concentration” value [6] was “BLQ^a”, the “Mean Vitreous Humor concentration” value [6] was “BLQ^a” and the Mean plasma concentration [6] was “BLQ^a”. The “Mean Aqueous Humor concentration” value [7] was “BLQ^a”, the “Mean Vitreous Humor concentration” value [7] was “BLQ^a” and the Mean plasma concentration [7] was “BLQ^a”. For the same compound, the “Mean Choroid-RPE concentration” value [8] was “BLQ^a and BLQ”, the “Mean Iris-Ciliary Body concentration” value [8] was “BLQ^a and BLQ” and the Mean retina concentration [8] was “BLQa and BLQ^a and BLQ”. For the same compound, the Mean retina concentration (DB rabbit, 15 mg/kg single oral dose, Day 1, 6 h, 15 mg/kg) was 30 ng/g, the “Mean Aqueous Humor concentration” value [9] was “BLQ^a” and the “Mean Vitreous Humor concentration” value [9] was “BLQ^a”. The Mean retina concentration (DB rabbit, 15 mg/kg single oral dose, Day 1, 24 h, 15 mg/kg) was 25 ng/g, the “Mean Aqueous Humor concentration” value [10] was “BLQ^a” and the “Mean Vitreous Humor concentration” value [10] was “BLQ^a”. The Mean plasma concentration [11] was “no drug was detectable; also recorded: BLQ^a”, the Mean retina concentration [11] was “BLQ^a and BLQ” and the “Mean Vitreous Humor concentration” value [12] was “BLQ^a”. For the same compound, the Mean plasma concentration [12] was “BLQ^a”, the Mean retina concentration (DB rabbit, 15 mg/kg single oral dose, Day 1, 168 h, 15 mg/kg) was “BLQ^a and BLQ” and the “Mean Aqueous Humor concentration” value [13] was “BLQ^a”. For the same compound, the “Mean Vitreous Humor concentration” value [13] was “BLQ^a”, the Mean plasma concentration [13] was “BLQ^a” and the Mean retina concentration (DB rabbit, 15 mg/kg single oral dose, Day 1, 240 h, 15 mg/kg) was “BLQ^a and BLQ”. For the same compound, the “Accumulation of the drug in Choroid-RPE after repeat dosing” value (DB rabbit, Day 1 to Day 15) was roughly 6 fold, the “Mean Choroid-RPE concentration” value [14] was “BLQ” and the “Mean retina concentration” value [14] was “BLQ”. For the same compound, the “Mean retina concentration” value (DB rabbits, Day 1, 15 mg/kg single dose, 96 hr) was “BLQ”, the “Mean retina concentration” value (DB rabbits, Day 1, 15 mg/kg single dose, 168 hr) was “BLQ” and the “Mean retina concentration” value (DB rabbits, Day 1, 15 mg/kg single dose, 240 hr) was “BLQ”. It also gave a concentration at 1 h (aqueous humor, po, 15 mg/kg, DB rabbit, 15 mg/kg BID oral, Day 15, 1 h, read-out: Mean Aqueous Humor concentration) of 10.6 ng/mL, a concentration at 1 h (aqueous humor, po, 15 mg/kg, DB rabbit, 15 mg/kg single oral dose, Day 1, 1 h, read-out: Mean Aqueous Humor concentration) of 3.8 ng/mL and a concentration at 6 h (aqueous humor, po, 15 mg/kg, DB rabbit, 15 mg/kg single oral dose, Day 1, 6 h, read-out: Mean Aqueous Humor concentration) of 45.3 ng/mL. For the same compound, the concentration at 168 h (aqueous humor, po, 15 mg/kg, DB rabbit, 15 mg/kg single oral dose, Day 1, 168 h, read-out: Mean Aqueous Humor concentration) was 11.1 ng/mL, the concentration at 1 h (choroid-RPE, oral, 15 mg/kg, DB rabbits, Day 1, 15 mg/kg single dose, 1 hr, read-out: Mean Choroid-RPE Concentration) was 917 ng/g and the concentration at 6 h (choroid-RPE, oral, 15 mg/kg, DB rabbits, Day 1, 15 mg/kg single dose, 6 hr, read-out: Mean Choroid-RPE Concentration) was 866 ng/g. For the same compound, the concentration at 24 h (choroid-RPE, oral, 15 mg/kg, DB rabbits, Day 1, 15 mg/kg single dose, 24 hr, read-out: Mean Choroid-RPE Concentration) was 311 ng/g, the concentration at 96 h (choroid-RPE, oral, 15 mg/kg, DB rabbits, Day 1, 15 mg/kg single dose, 96 hr, read-out: Mean Choroid-RPE Concentration) was 77.5 ng/g and the concentration at 168 h (choroid-RPE, oral, 15 mg/kg, DB rabbits, Day 1, 15 mg/kg single dose, 168 hr, read-out: Mean Choroid-RPE Concentration) was 56.3 ng/g. For the same compound, the concentration at 240 h (choroid-RPE, oral, 15 mg/kg, DB rabbits, Day 1, 15 mg/kg single dose, 240 hr, read-out: Mean Choroid-RPE Concentration) was 28.1 ng/g, the concentration at 0 h (choroid-RPE, oral, 15 mg/kg, DB rabbits, Day 15, 15 mg/kg BID, 0 hr, read-out: Mean Choroid-RPE Concentration) was 2460 ng/g and the concentration at 1 h (choroid-RPE, oral, 15 mg/kg, DB rabbits, Day 15, 15 mg/kg BID, 1 hr, read-out: Mean Choroid-RPE Concentration) was 4870 ng/g. For the same compound, the concentration at 6 h (choroid-RPE, oral, 15 mg/kg, DB rabbits, Day 15, 15 mg/kg BID, 6 hr, read-out: Mean Choroid-RPE Concentration) was 3200 ng/g, the concentration at 24 h (choroid-RPE, oral, 15 mg/kg, DB rabbits, Day 15, 15 mg/kg BID, 24 hr, read-out: Mean Choroid-RPE Concentration) was 1960 ng/g and the concentration at 96 h (choroid-RPE, oral, 15 mg/kg, DB rabbits, Day 15, 15 mg/kg BID, 96 hr, read-out: Mean Choroid-RPE Concentration) was 866 ng/g. It also gave a concentration at 168 h (choroid-RPE, oral, 15 mg/kg, DB rabbits, Day 15, 15 mg/kg BID, 168 hr, read-out: Mean Choroid-RPE Concentration) of 485 ng/g, a concentration at 240 h (choroid-RPE, oral, 15 mg/kg, DB rabbits, Day 15, 15 mg/kg BID, 240 hr, read-out: Mean Choroid-RPE Concentration) of 340 ng/g and an MRT inf [15] of 125 h. For the same compound, the half-life [15] was 107 h, the MRT inf [16] was 81.8 h and the half-life [16] was 98.4 h. For the same compound, the concentration at 0 h (choroid-RPE, po, 15 mg/kg, DB rabbit, 15 mg/kg BID oral, Day 15, 0 h, read-out: Mean Choroid-RPE concentration) was 2460 ng/g, the concentration at 1 h (choroid-RPE, po, 15 mg/kg, DB rabbit, 15 mg/kg BID oral, Day 15, 1 h, read-out: Mean Choroid-RPE concentration) was 4870 ng/g and the concentration at 6 h (choroid-RPE, po, 15 mg/kg, DB rabbit, 15 mg/kg BID oral, Day 15, 6 h, read-out: Mean Choroid-RPE concentration) was 3200 ng/g. The concentration at 24 h (choroid-RPE, po, 15 mg/kg, DB rabbit, 15 mg/kg BID oral, Day 15, 24 h, read-out: Mean Choroid-RPE concentration) was 1960 ng/g, the concentration at 96 h (choroid-RPE, po, 15 mg/kg, DB rabbit, 15 mg/kg BID oral, Day 15, 96 h, read-out: Mean Choroid-RPE concentration) was 866 ng/g and the concentration at 168 h (choroid-RPE, po, 15 mg/kg, DB rabbit, 15 mg/kg BID oral, Day 15, 168 h, read-out: Mean Choroid-RPE concentration) was 485 ng/g. For the same compound, the concentration at 240 h (choroid-RPE, po, 15 mg/kg, DB rabbit, 15 mg/kg BID oral, Day 15, 240 h, read-out: Mean Choroid-RPE concentration) was 340 ng/g, the concentration at 1 h (choroid-RPE, po, 15 mg/kg, DB rabbit, 15 mg/kg single oral dose, Day 1, 1 h, read-out: Mean Choroid-RPE concentration) was 917 ng/g and the concentration at 6 h (choroid-RPE, po, 15 mg/kg, DB rabbit, 15 mg/kg single oral dose, Day 1, 6 h, read-out: Mean Choroid-RPE concentration) was 866 ng/g. For the same compound, the concentration at 24 h (choroid-RPE, po, 15 mg/kg, DB rabbit, 15 mg/kg single oral dose, Day 1, 24 h, read-out: Mean Choroid-RPE concentration) was 311 ng/g, the concentration at 96 h (choroid-RPE, po, 15 mg/kg, DB rabbit, 15 mg/kg single oral dose, Day 1, 96 h, read-out: Mean Choroid-RPE concentration) was 77.5 ng/g and the concentration at 168 h (choroid-RPE, po, 15 mg/kg, DB rabbit, 15 mg/kg single oral dose, Day 1, 168 h, read-out: Mean Choroid-RPE concentration) was 56.3 ng/g. It also gave a concentration at 240 h (choroid-RPE, po, 15 mg/kg, DB rabbit, 15 mg/kg single oral dose, Day 1, 240 h, read-out: Mean Choroid-RPE concentration) of 28.1 ng/g.
